# Reference: patent US20230054895A1, “METHODS FOR INDUCING BIOSTASIS IN A CELL, TISSUE OR ORGAN” (PRESIDENT AND FELLOWS OF HARVARD COLLEGE, priority 2020, published 2023)
# “Also recorded” adds a separate entry of the source. Structures can show the parent of a compound that is named as a salt. Where two headings read alike, the source gives them in different places.
# Key:
# Xenopus tadpoles [1] = test: Oxygen consumption of Xenopus tadpoles and embryos; format: in vivo, Xenopus laevis
# Xenopus embryos = system: Xenopus embryos
# Source text: Developed tail length assay are used to assess embryo tail development during drug contact.
# Automated embryo culture and imaging platform with machine vision processing. Analysis pipeline allows screening scale-up to hundreds of embryos at a given time.
# The effects of ^2H2O on metabolism were examined in relation to biostasis in vivo. Xenopus embryos were contacted with 0.1×MMR media prepared with various concentrations of ^2H2O.
# Xenopus tadpoles [2] = test: Movement / swimming of Xenopus tadpoles (stasis and reversal); format: in vivo, Xenopus laevis
# Procedure: This slowing of motion is reversible; average movement of the Xenopus tadpoles is returned to pre-treatment levels following removal of Donepezil. […] The drug is removed at 30 minutes, as indicated by the hash-line. Movement resumed within 50 min after drug removal.
# To determine if this slowing of movement is reversible, the drug was removed from the culture medium after 30 minutes (denoted by the hashed-line). Movement resumed at the pre-treatment level within 50 min after drug removal.
# The effects of SNC-80 and the NCX1 inhibitor KB-R7943 mesylate (also referred to herein as “WC-60) were evaluated alone and in combination. Tadpoles were exposed to SNC-80 at 25 μM for 24 hr continuously, and swimming was assessed. […] Similarly, no effect on oxygen consumption was observed when tadpoles were exposed to KB-R7943 mesylate at 35 uM for 24 h continuously (FIG. 25B).
# Xenopus tadpoles [3] = format: in vivo; settings: 50 uM for 30 min, recovery, tested over 24 h
# Procedure: Tadpoles were then tested over a 24 h period in an automated behavior and cognitive testing platform to measure cognitive or motor function.
# Finally, the cognitive and motor function performance of Xenopus tadpoles treated with Donepezil was assessed. […] Following the onset of stasis, the drug was removed and tadpoles were allowed to recover. Tadpoles were then tested over a 24 hour period in an automated behavior and cognitive testing platform to measure whether tadpoles that previously went through stasis had decreased cognitive and motor function performance.
# Xenopus tadpoles [4] = test: Oxygen consumption of Xenopus tadpoles and embryos; format: in vivo, Xenopus laevis; remark: listed apart in the source
# Source text: Dynamic drug dosing used to examine stasis control parameters (10 tadpoles/chamber, n=3 replicates).
# The oxygen consumption assay described herein above was used.
# Caco-2 cells [5] = test: Intracellular ATP in Caco-2 cells; format: cell-based
# Caco-2 cells [6] = test: Respiration / oxygen utilization in Caco-2 cells; format: cell-based
# Caco-2 cells [7] = test: NAD/NADH live reporting in Caco-2 cells; format: cell-based; settings: 100 uM, p<0.0005, comparable to positive control sodium oxamate
# pig hind limb = test: Pig hind limb ex vivo perfusion on ULiSSES Platform (biostasis of a pig limb)
# Procedure: Protocol for Evaluating the Effect of an Agent on Inducing Biostasis of a Pig Limb.
# The establishment of biostasis in a mammal according to the methods described herein was evaluated in a pig limb model. Prior to removing a hind limb from the animal, a pre-operation blood draw was preformed to obtain a baseline. The hind limb was removed via an amputation, and four muscle biopsies were immediately taken. For use in RT-PCR, a first biopsy was stored at −80° C. to preserve RNA integrity. For histology, a second biopsy was fixed in formalin and stored at 2-4° C. or at room temperature. For use in ELISA, a third biopsy was snap frozen and stored at −80° C. Finally, in lieu of Microdialysis, a fourth biopsy was snap frozen and stored at −80° C.
# The limb was first flushed with 4° C. heparinized Krebs Henseleit Buffer alone. The limb was then weighed and attached to the ULiSSES Platform. The Platform was run subnormothermic relative to […] (e.g., 18-23° C.). During the protocol, the limb was perfused with buffer alone (control) or buffer with SNC-80. Further description of the ULiSSES Platform can be found on the world wide web at www.techbriefs.com/component/content/article/tb/stories/blog/35406.
# Following the limb being attached to the platform (time 0 hour), an RNA-preserving biopsy, a formalin-fixed biopsy, and a snap frozen biopsy were taken, and a perfusate sample was also taken. The “perfusate sample” is a sample that is assessed for arterial and […] blood gases, and subjected to a blood chemistry panel to measure sodium, potassium, glucose, and lactate levels. The perfusate sample is further snap frozen for other analyses, including RNAseq and cytokine analysis.
# These sampling steps were further repeated at times 3 hours, 6 hours, 12 hours, and 24 hours. At times 9 hours, 15 hours, 18 hours, and 21 hours, a perfusate sample was taken.
# The protocol was completed at time 24 hours. The limb was removed from the ULiSSES Platform and weighed. Separate, proof of concept experiments were performed as described above, but were completed at time 6 hours.
# Xenopus tadpoles [8] = test: Movement / swimming of Xenopus tadpoles (stasis and reversal); format: in vivo, Xenopus laevis; remark: listed apart in the source
# mice = settings: FIG. 1, Rawls and Cowan 2006; cited from earlier work
# rats = settings: via delta-2 opioid receptor; cited from earlier work
# [9] = high doses; cited from earlier work
# tadpoles = test: Life span of tadpoles in low-oxygen environments; format: in vivo, Xenopus; settings: 50% ^2H2O-treated tadpoles; MMR controls 6 hours
# Procedure: At the indicated consumption rate, ^2H2O-treated tadpoles survive for >30 hours as compared to 6 hours for MMR controls.
# Xenopus tadpoles [10] = test: Recovery from Donepezil-induced biostasis in tadpoles (tail length, oxygen consumption); format: in vivo; settings: 50 mM kestose in MMR vs MMR alone
# Procedure: To determine if an agent plays a role in accelerating recovery following induction of biostasis, tadpoles can be treated with a biostasis-inducing agent as described herein, to induce biostasis and then transferred to a medium containing a test agent, or just medium. Recovery is assessed by assessing development rate following recovery (e.g., by measuring tadpole tail length), movement, and oxygen consumption.
# [11] = 25 μM SNC-80, 24 hr continuously
# [12] = compared to control treated limb
# [13] = perfusate, vs control treatment
# [14] = prior to and following treatment
# [15] = 50% ^2H2O, 4 days biostasis, 3 days of recovery
compound,measurement,setting,value
CCN(CC)CCCN(c1ccccc1)C1Cc2ccccc2C1 [Aprindine],oxygen consumption of free swimming tadpoles,"Xenopus tadpoles [1]; 25 uM, after 20 min of exposure, vs vehicle controls",decreased oxygen consumption
"COc1cc2c(cc1OC)C(=O)C(CC1CCN(Cc3ccccc3)CC1)C2 (stereo not shown) [Donepezil, 2-((1-Benzylpiperidin-4-yl)methyl)-5,6-dimethoxy-2,3-dihydro-1H-inden-1-one]",tail length,"Xenopus embryos; Xenopus tadpoles, compared to vehicle control or SNC-80",reduced tail length
same,time to slowing of motion after drug addition,Xenopus tadpoles [2]; 50 uM Donepezil,≤ 10 min
same,time to resumption of movement after drug removal,Xenopus tadpoles [2]; 50 uM Donepezil removed at 30 minutes,≤ 50 min
same,cognitive performance,Xenopus tadpoles [3],may have slightly improved cognitive performance
N=C(N)SCCc1ccc(OCc2ccc([N+](=O)[O-])cc2)cc1 [KB-R7943 mesylate],swimming,"Xenopus tadpoles [2]; KB-R7943 mesylate, data not shown",decreased swimming
same,oxygen consumption in tadpoles,"Xenopus tadpoles [1]; 35 μM KB-R7943 mesylate, 24 h continuously",no effect
same,oxygen consumption in tadpoles,"Xenopus tadpoles [1]; 35 μM KB-R7943 mesylate, 24 h continuously, listed as KB-R7943 Mesylate",No change
Oc1ccc2c3c1O[C@H]1c4[nH]c5ccccc5c4C[C@@]4(O)[C@@H](C2)N(CC2CC2)CC[C@]314 [Naltrindole],blocking of the stasis-inducing effects of SNC-80,"Xenopus tadpoles [1]; concentrations up to 100 uM, 4 h of exposure",does not block
"C=CCN1C[C@H](C)N([C@H](c2ccc(C(=O)N(CC)CC)cc2)c2cccc(OC)c2)C[C@H]1C [SNC-80, (+)-4-[(αR)-α-((2S,5R)-4-Allyl-2,5-dimethyl-1-piperazinyl)-3-methoxybenzyl]-N,N-diethylbenzamide]",reduction of embryo length compared to control,"Xenopus embryos; 0.4 μM SNC-80 (n=5) vs control (n=6), end of dosing period t=48 h",19.8%
same,embryo length after drug removed,"Xenopus embryos; 0.4 μM SNC-80, after drug removal",caught up to controls
same,delay in impacting oxygen metabolism,"Xenopus tadpoles [4]; 60 μM dose, dynamic dosing, 10 tadpoles/chamber, n=3",~10 min
same,oxygen consumption and other metrics of metabolic rate,"Xenopus tadpoles [4]; healthy tissues and Xenopus tadpoles, dose dependence",dose-dependent reduction in oxygen consumption
same,induction of biostasis,Xenopus tadpoles [2]; 25 μM SNC-80,not sufficient to induce biostasis
same,swimming,Xenopus tadpoles [2]; [11],normal swimming
same,reversibility of movement arrest,Xenopus tadpoles [2]; removal / withdrawal of the drug,reversed upon withdrawal of the drug; also recorded: reversed by removal of the drug
same,intracellular ATP,Caco-2 cells [5],reduction in intracellular ATP levels
same,intracellular ATP,Caco-2 cells [5]; listed as SNC80,reduces intracellular ATP
same,respiration / oxygen utilization,Caco-2 cells [6],did not inhibit oxygen utilization
same,respiration / oxygen utilization,Caco-2 cells [6]; listed as SNC80,respiration unchanged
same,NAD/NADH ratio,Caco-2 cells [7],significant increase
same,relative metabolic rate in hind limb,"pig hind limb; 3 hours post treatment, slope vs control P<0.0001",marked reduction of metabolic rate; also recorded: noticeable reduction
same,oxygen uptake in hind limb,"pig hind limb; 10 hours post-treatment, vs control treated limb",noticeable reduction
same,oxygen uptake in hind limb,"pig hind limb; 24 hours post-treatment, vs control treated limb",marked reduction
same,change in mass of limb prior to and following treatment,pig hind limb; [12],larger change in a mass; also recorded: greater difference
same,oxygen uptake in hind limb,pig hind limb; [12],markedly reduces oxygen uptake
same,oxygen uptake levels relative to hypothermic conditions,pig hind limb; data not shown,greater extent than hypothermic conditions
same,glucose level,pig hind limb; [13],No change; also recorded: not a marked difference
same,lactate level,pig hind limb; [13],No change; also recorded: not a marked difference
same,potassium level,pig hind limb; [13],No change; also recorded: not a marked difference
same,"glycogen content inside the cells (PAS, optical density)",pig hind limb; [14],remains at a basal level
same,intercellular edema (histology of limb muscle),pig hind limb; [14],increase in intercellular edema
same,muscle bundle area (histology),pig hind limb; [14],did not increase significantly
same,relative metabolic rate in hind limb,pig hind limb; vs control (perfusion medium alone),markedly reduces metabolic rate
same,oxygen consumption in tadpoles,Xenopus tadpoles [1]; [11],No change; also recorded: normal
same,oxygen consumption of embryos,"Xenopus tadpoles [1]; Xenopus embryos, FIG. 7",reduces oxygen consumption
same,oxygen consumption in tadpoles,Xenopus tadpoles [1]; stasis inducing concentration of SNC-80 in combination with 100 uM Naltrindole,remains decreased
same,biostatic effect in Xenopus laevis tadpoles,Xenopus tadpoles [8]; FIG. 8,reversible biostatic effect
same,concentration resulting in arrest of tadpole movement,Xenopus tadpoles [8]; Xenopus tadpoles,> 100 µM
same,movement of whole animals,Xenopus tadpoles [8]; high-dose administration,completely arrested
same,hypothermia,mice,induces hypothermia
same,hypothermia,rats,induce hypothermia
same,convulsions,[9],produces convulsions at high doses
"[2H]O[2H] [^2H2O, Deuterium oxide]",embryo length,Xenopus embryos; 50% ^2H2O in 0.1×MMR,marked reduction in embryo length
same,adverse effects after recovery,Xenopus embryos; [15],do not exhibit adverse effects
same,developmental state after recovery,Xenopus embryos; [15],remain developmentally delayed
same,concentrations with no effect on tail length,Xenopus embryos; Xenopus embryos,< 50%
same,concentrations that were toxic,"Xenopus embryos; Xenopus embryos, data not shown",> 70%
same,concentrations with no effect on swimming,Xenopus tadpoles [2]; tadpoles,< 50%
same,survival in low-oxygen environment at the indicated consumption rate,tadpoles,> 30 h
same,oxygen consumption of embryos,"Xenopus tadpoles [1]; 50% ^2H2O, within hours of contact",reduced oxygen consumption
same,time to slowed swimming,Xenopus tadpoles [8]; 50% ^2H2O,≤ 10 min
same,concentrations that were toxic,Xenopus tadpoles [8]; tadpoles,> 70%
same,swimming after return to normal media,"Xenopus tadpoles [8]; without ^2H2O, data not shown",returned to normal
OC[C@H]1O[C@@](CO)(OC[C@@]2(O[C@H]3O[C@H](CO)[C@@H](O)[C@H](O)[C@H]3O)O[C@H](CO)[C@@H](O)[C@@H]2O)[C@@H](O)[C@@H]1O [kestose],recovery from biostasis induced via Donepezil,Xenopus tadpoles [10],faster recovery
